Data on one molecule can be found in patent US6863865B2, “Sterilization of pharmaceuticals” (Breath Limited, priority 2000, dated 2005).

Data set [1] can be described thus: HPLC evaluation of impurities after high temperature short time (HTST) sterilization. The data set is classed as physicochemical. As to conditions: Fo exposures up to 24. The source says:
The formulation to be sterilized was passed through narrow lines of pharmaceutical quality stainless steel in which the sample was rapidly raised to an elevated temperature, maintained at this holding temperature for a period of time, then rapidly returned to ambient temperature. Parameters described in Table 1 are the BMRT (bulk mean retention time), that is the time between the sample being raised above ambient temperature and being returned to ambient temperature, and the FFERT, the time for which the sample is maintained at the elevated temperature. […] The theoretical kill rate, Fo, may be calculated from the FFERT and the elevated temperature. The value of Fo is optimally greater than 10, but values greater than 8 are acceptable for the production of sterile formulations.
This example was carried out to evaluate the effect of HTST on the chemical purity of pharmaceutical preparations by assessing the levels of degradation obtained in samples exposed to varying Fo (effective killing times) times. For the purposes of these experiments, budesonide suspensions were used in the evaluation.
The samples were then evaluated using high performance liquid chromatography to assess the level of impurities present.

The conditions of data set [2]: cited from earlier work.
Data set [3] in a line: Treatment with high intensity light (Pure-bright process). The settings on record: light at 900 times the intensity of sunlight at sea level; formulations produced as in Example 1. It is filed as physicochemical. The source says: An alternative method of sterilization of a budesonide suspension is treatment with high intensity light. The so-called “Pure-bright” process allows treatment with light at 900 times the intensity of sunlight at sea level.

Regarding `CCCC1O[C@@H]2C[C@H]3[C@@H]4CCC5=CC(=O)C=C[C@]5(C)[C@H]4[C@@H](O)C[C@]3(C)[C@]2(C(=O)CO)O1` (stereo partly drawn) [budesonide], the “effect on chemical stability” value in data set [1] was “no adverse effect”. Also, in data set [2], the stability to gamma-irradiation entry is reported as “destroyed”. Also, the “stability of budesonide to high intensity light” value in data set [3] was “completely destroyed”.
